Our source for the IC50 and viability, T/C values is PubChem BioAssay AID1963854 (Molecular Pharmacology Branch, DTP, NCI, 2024).

Usually IC50 stands for the concentration that gives 50% inhibition. For orientation: viability, T/C means the result in the treated group divided by that in the control group, in per cent.

The assay has as its system 186277-243-T-J2-PDC complex spheroid viability. Nature of the assay: Anticancer human tumor 186277-243-T-J2-PDC patient-derived colon adenocarcinoma cell line growth inhibition [POLQ]. The following applies: for viability, T/C: stronger effect = lower value. The method, then: Multicellular complex tumor spheroid response to Polymerase (POL) inhibitors (novobiocin, ART-558, RP6685) in combination with a variety of drugs and investigational agents in selected tumor cell lines
The POL inhibitors (novobiocin, ART-558, and RP6685) were evaluated both individually and in combination with standard of care and investigational anticancer small molecules within a complex spheroid model of solid tumors. . Complex spheroids include a stromal component modeled by human endothelial cells (HUVEC) and fibroblasts modeled by human mesenchymal stem cells (MSCs). The concentration ranges selected for each drug and investigational agent were based upon clinically achievable concentrations if the clinical Cmax of the agent was known.
Compounds. The drugs and investigational agents: novobiocin (NSC847541), ART-558 (NSC835418), RP-6685 (NSC848927), peposertib (NSC802822), ceralasertib (NSC780249), elimusertib (NSC800525), camonsertib (NSC841442), AZD-1390 (NSC803789), olaparib (NSC753686), talazoparib (NSC767125), rucaparib (NSC756644), sotorasib (NSC818433), MRTX-1133 (NSC836407), SN-38 (NSC673596), topotecan (NSC609699), epotoside (NSC141540), doxorubicin (NSC123127), gemcitabine (NSC613327), 5-fluorouracil (NSC19893), paclitaxel (NSC125973), vemurafenib (NSC761431), MSA-2 (NSC828583), SN-011 (NSC837082), adavosertib (NSC754352), prexasertib (NSC758257), carboplatin (NSC241240) and oxaliplatin (NSC266046), were obtained from the National Cancer Institute (NCI) Developmental Therapeutics Program Chemical Repository (21). The FDA-approved anticancer drug set is available from the Developmental Therapeutics Program at https://dtp.cancer.gov/organization/dscb/obtaining/. […] The stock solutions were prepared in dimethyl sulfoxide (DMSO, Sigma-Aldrich, St. Louis, MO, cat. D2650), except for the platinum compounds which were prepared in saline (Quality Biological, Gaithersburg, MD, cat. 114-055-101), at 800-fold the tested concentration and stored at -70 degrees C prior to their use. All drugs and investigational agents were tested over a range starting from a high concentration at or near the clinical Cmax and decreasing in half-log increments. If the clinical Cmax for an agent had not been determined, the highest concentration tested was 10 microM, except for SN-38, which was tested at a high concentration of 1 microM.
Cell Culture. All cells were maintained in an incubator at 37 degrees C and 5% CO2 with 95% humidity. The PDC lines were cultured according to standard operating procedures established by the NCI PDMR (https://pdmr.cancer.gov). Table 3 of the manuscript, lists the cell lines along with the number of the three cell types plated to form the mct-spheroids and media for tumor cell growth. After thawing, all PDC lines, except 997537-175-T-J1-PDC and 415267-285-R-J2-PDC, were cultured in Matrigel-coated flasks prepared with a working solution of 1X Ham's F-12 nutrient mix, without supplementation (Thermo Fisher Scientific, cat. 11765054), 100 U/mL penicillin-streptomycin (Thermo Fisher Scientific, cat. 15140122), and 2.5% Matrigel (Corning Inc., Corning, NY, cat. 354248) for the first three passages. The two PDC lines 997537-175-T-J1-PDC and 415267-285-R-J2-PDC were cultured on uncoated flasks. The 857933-349-R-J2-PDC line was cultured in 6C/Colon 1B media containing advanced DMEM/F-12 (Thermo Fisher Scientific, cat. 12634028), 10 mM HEPES (Thermo Fisher Scientific, cat. 15630080), 1X GlutaMAX supplement (Thermo Fisher Scientific, cat. 35050061), 0.1 mg/mL primocin (InvivoGen, San Diego, CA, cat. ant-pm-2), 10% defined fetal bovine serum, heat inactivated (HyClone Laboratories Inc., Logan, UT, cat. SH30070.03HI), 50% L-WRN conditioned media (ATCC, cat. CRL-3276), 1.25 mM N-Acetyl-L-cysteine (Sigma-Aldrich, cat. A9165), 10 mM nicotinamide (Sigma-Aldrich, cat. N0636), 1X B-27 supplement (Thermo Fisher Scientific, cat. 17504044), 1X N-2 supplement (Thermo Fisher Scientific, cat. […]

Several values for one entry are separate records, joined by “and”; a condition that tells them apart may be missing. Equal entries are not always repeated.
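Note: spheroids exposed to compounds for seven days.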

On to `C=CC(=O)N1CCN(c2nc(=O)n(-c3c(C)ccnc3C(C)C)c3nc(-c4c(O)cccc4F)c(F)cc23)C(C)C1` (stereo not given) + Cc1cccc(N(C)C(=O)C2C(O)CCN2c2nc(C)cc(C(F)(F)F)c2C#N)c1, for which the IC50 (curve of first compound, second compound 0.0316 µM) is above 10 µM; the half-maximal inhibitory concentration (IC50) (curve of first compound, second compound 0.1 µM) is above 10 µM; the IC50 (curve of first compound, second compound 0.316 µM) was above 10 µM; the IC50 (curve of first compound, second compound 1 µM) was above 10 µM; the half-maximal inhibitory concentration (IC50) (curve of first compound, second compound 3.16 µM) is above 10 µM; the half-inhibitory concentration (IC50) (curve of first compound, second compound 10 µM) was above 10 µM. Further, the viability, T/C was 92.8% (second compound 0.0316 µM, first compound 0.0316 µM); 101% (second compound 0.0316 µM, first compound 0.1 µM); 82.2% (second compound 0.0316 µM, first compound 0.316 µM); 90.9% (second compound 0.0316 µM, first compound 1 µM); 99.5% (second compound 0.0316 µM, first compound 3.16 µM); 103% (second compound 0.0316 µM, first compound 10 µM). For the same compound, the viability, T/C was 106% (second compound 0.1 µM, first compound 0.0316 µM); 98.6% (second compound 0.1 µM, first compound 0.1 µM); 103% (second compound 0.1 µM, first compound 0.316 µM); 84.7% (second compound 0.1 µM, first compound 1 µM); 107% (second compound 0.1 µM, first compound 3.16 µM); 104% (second compound 0.1 µM, first compound 10 µM). In addition, the viability, T/C reads like this: (second compound 0.316 µM, first compound 0.0316 µM) 90.4%; (second compound 0.316 µM, first compound 0.1 µM) 91.5%; (second compound 0.316 µM, first compound 0.316 µM) 102%; (second compound 0.316 µM, first compound 1 µM) 99.5%; (second compound 0.316 µM, first compound 3.16 µM) 112%; (second compound 0.316 µM, first compound 10 µM) 102%. In addition, the viability, T/C (second compound 1 µM, first compound 0.0316 µM) was 99.8%; the viability, T/C (second compound 1 µM, first compound 0.1 µM) was 108%; the viability, T/C (second compound 1 µM, first compound 0.316 µM) is 98.6%; the viability, T/C (second compound 1 µM, first compound 1 µM) is 96.2%; the viability, T/C (second compound 1 µM, first compound 3.16 µM) was 108%; the viability, T/C (second compound 1 µM, first compound 10 µM) is 101%. Further, the viability, T/C is 106% (second compound 3.16 µM, first compound 0.0316 µM); 99% (second compound 3.16 µM, first compound 0.1 µM); 84% (second compound 3.16 µM, first compound 0.316 µM); 106% (second compound 3.16 µM, first compound 1 µM); 111% (second compound 3.16 µM, first compound 3.16 µM); 103% (second compound 3.16 µM, first compound 10 µM). Moreover, the viability, T/C reads like this: (second compound 10 µM, first compound 0.0316 µM) 97.9%; (second compound 10 µM, first compound 0.1 µM) 106%; (second compound 10 µM, first compound 0.316 µM) 108%; (second compound 10 µM, first compound 1 µM) 102%; (second compound 10 µM, first compound 3.16 µM) 97.3%; (second compound 10 µM, first compound 10 µM) 95.9%.

Consider `Cn1ncnc1[C@H]1c2n[nH]c(=O)c3cc(F)cc(c23)N[C@@H]1c1ccc(F)cc1`, for which the viability, T/C reads like this: (compound 0.000316 µM) 102% and 96.7% and 107%; (compound 0.001 µM) 100% and 97.4% and 94.3%; (compound 0.00316 µM) 104% and 101% and 97%; (compound 0.01 µM) 118% and 100% and 105%; (compound 0.0316 µM) 118% and 137% and 114%; (compound 0.1 µM) 109% and 124% and 103%. Moreover, the half-inhibitory concentration (IC50) (curve of compound) is above 0.1 µM.

For `CC(=O)O[C@H]1C(=O)[C@@]2(C)[C@H]([C@H](OC(=O)c3ccccc3)[C@]3(O)C[C@H](OC(=O)[C@H](O)[C@@H](NC(=O)c4ccccc4)c4ccccc4)C(C)=C1C3(C)C)[C@]1(OC(C)=O)CO[C@@H]1C[C@@H]2O`, the viability, T/C was 38.5% and 44.7% and 19.1% (compound 0.00949 µM); 10.6% and 11.3% and 5.03% (compound 0.03 µM); 7.36% and 7.77% and 3.51% (compound 0.0949 µM); 5.49% and 5.99% and 2.78% (compound 0.3 µM); 5.37% and 6% and 2.77% (compound 0.949 µM); 4.97% and 5.56% and 2.45% (compound 3 µM). Also, the IC50 (curve of compound) was below 0.00949 µM.

Turning to `CCc1cc2c(N3CCc4c(cc(Cn5ccnc5)cc4-c4cn(C)nc4C(F)(F)F)C3=O)ccnc2c(OC)n1`, the viability, T/C (compound 0.0316 µM) is 103% and 94.2% and 101%; the viability, T/C (compound 0.1 µM) was 91.9% and 87.2% and 87.1%; the viability, T/C (compound 0.316 µM) is 88.2% and 90.2% and 95.8%; the viability, T/C (compound 1 µM) is 84.1% and 101% and 107%; the viability, T/C (compound 3.16 µM) is 87.8% and 103% and 101%; the viability, T/C (compound 10 µM) was 83.4% and 104% and 91.2%. Also, for the setting “curve of compound”, the IC50 was above 10 µM.

With `Nc1ccn(C2OC(CO)C(O)C2(F)F)c(=O)n1` (stereo not given), the viability, T/C is, setting by setting: (compound 0.0316 µM) 7.08% and 13.1% and 7.05%; (compound 0.1 µM) 6.01% and 12.5% and 5.9%; (compound 0.316 µM) 7.05% and 13.8% and 6.01%; (compound 1 µM) 8.16% and 14.3% and 6.86%; (compound 3.16 µM) 7.56% and 13.9% and 6.67%; (compound 10 µM) 6.46% and 13.6% and 5.49%. In addition, the IC50 (curve of compound) was below 0.0316 µM.
